Data published in patent EP2975030B1, “DIHYDROPYRIDAZINE-3,5-DIONE DERIVATIVE” (Chugai Seiyaku Kabushiki Kaisha, priority 2013, dated 2014).

How the values were obtained:
[1] = system: rat small-intestinal brush border membrane vesicles; experiment: Inhibitory effect on 33PO4 uptake into rat small-intestinal brush border membrane vesicles (rapid filtration method); format: biochemical, Wistar female rat; conditions: 1 µM test compound, 33PO4 uptake into rat small-intestinal BBMVs, 60 seconds
How it was run: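 Uptake was terminated by ice-cold 110 mM NaCl, 1 mM KH2PO4, 10 mM HEPES (pH 7.5) buffer and immediate suction filtration, then washing. Using rat small-intestinal BBMVs, retained 33PO4 was quantified by liquid scintillation counting as transport activity.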

[2] = system: human NaPi-IIb; experiment: Inhibitory effect on 33PO4 uptake into human NaPi-IIb-expressing cell; format: cell-based; conditions: CHO cells stably expressing human NaPi-IIb, 1, 3, 10, or 30 µM
Protocol: CHO cells were transfected with human NaPi-IIb expression plasmids, and a stably human NaPi-IIb-expressing cell line was obtained using G418. The human NaPi-IIb-expressing cells were inoculated to a 96-well plate and incubated overnight in a CO2 incubator. The medium was replaced with buffer A (145 mM choline chloride, 3 mM KCl, 1 mM CaCl2, 0.5 mM MgCl2, 5 mM glucose, and 5 mM MES (pH 6.5)) and then replaced with buffer B (145 mM NaCl, 3 mM KCl, 1 mM CaCl2, 0.5 mM MgCl2, 5 mM glucose, and 5 mM MES (pH 6.5)) supplemented with each test compound at a final concentration of 1,3, 10, or 30 µM or buffer A supplemented with DMSO. After a given time, a 1/20 volume of buffer A containing ^33PO4 was added thereto and reacted at room temperature. After washing with ice-cold buffer A, a liquid scintillator was added to each reaction mixture, and the amount of ^33PO4 uptake was measured using TopCount. The rate of inhibition was determined according to the following expression: [formula]

[3] = system: adenine-induced renal failure rat; experiment: Suppressive effect on rise in serum phosphorus concentration of adenine-induced renal failure rat (0.1% in feed, 3 days); format: in vivo, Wistar male rat; conditions: feed or water, 72 h, rate of suppression of a rise in serum phosphorus concentration, 0.1% of mass concentration in feed
Description: Test Example 5: Suppressive effect on rise in serum phosphorus concentration of adenine-induced renal failure rat Adenine was forcedly administered orally to each Wistar male rat (7-8 weeks old) to impair renal functions and thereby prepare a hyperphosphatemia model ([…], Nagano N, Burke SK, Fukushima N. Sevelamer hydrochloride prevents ectopic calcification and renal osteodystrophy in chronic renal failure rats. Kidney Int. 2003 Aug; 64 (2): 441-50). Each test compound was mixed at a ratio of 0.1% of mass concentration with feed. The animal was fed with a given amount of the feed for 3 days. A group given feed non-supplemented with a test compound was used as a reference pathological group, and an adenine-unadministered group given feed non-supplemented with a test compound was used as a normal group. 3 days after the start of administration of the test compound, blood was collected from the jugular vein, and serum was collected. Serum phosphorus concentrations were measured by the Fiske-Subbarow method. The rate of suppression of a rise in serum phosphorus concentration was determined according to the following expression: Rate (%) of suppression of a rise in serum phosphorus concentration = (1-[([…]-treatedpathologicalgroup); -(Serumphosphorusconcentrationofthenormalgroup)]/; [(Serumphosphorusconcentrationofthereferencepathologicalgroup)-(Serumphosphorusconcentrationofthenormalgroup)]) × 100 [formula] As a result, each test compound was confirmed to have a suppressive effect on a rise in serum phosphorus concentration. […]

[4] = system: adenine-induced renal failure rat; experiment: Suppressive effect on rise in serum phosphorus concentration of adenine-induced renal failure rat (0.05% in feed, 8 days); format: in vivo, Wistar male rat; conditions: rate of suppression of a rise in serum phosphorus concentration, 0.05% of mass concentration in feed
Protocol: Test Example 6: Suppressive effect on rise in serum phosphorus concentration of adenine-induced renal failure rat
Each adenine-induced renal failure rat was prepared in the same way as in Test Example 5. Each test compound was mixed at a ratio of 0.05% of mass concentration with feed. The animal was fed with a given amount of the feed for 8 days. A group given feed non-supplemented with a test compound was used as a reference pathological group, and an adenine-unadministered group given feed non-supplemented with a test compound was used as a normal group. 8 days after the start of administration of the test compound, blood was collected from the jugular vein, and serum was collected. Serum phosphorus concentrations were measured by the Fiske-Subbarow method. The rate of suppression of a rise in serum phosphorus concentration was determined according to the following expression: Rate (%) of supression of a rise in serum phosphorus concentration = (1−[(Serumphosphorusconcentrationofthetestcompound−treatedpathologicalgroup)−(Serumphosphorusconcentrationofthenormalgroup)]/[(Serumphosphorusconcentrationofthereferencepathologicalgroup)−(Serumphosphorusconcentrationofthenormalgroup)]) × 100 [formula]
As a result, each test compound was confirmed to have a suppressive effect on a rise in serum phosphorus concentration. […]

| SMILES | Rate of uptake inhibition (%) (1 µM) [1] | IC50 [2] | inhibition in vivo at 0.1 %, 0.1 % in feed [3] | Rate of inhibition (%) [4] | Rate of uptake inhibition (%) (1 µM) ([1]; 1 µM) |
| --- | --- | --- | --- | --- | --- |
| CN(C)S(=O)(=O)N1CCC(c2cc(C(F)(F)F)ccc2NC(=O)C2=C(O)[C@@]3(C)CCCN3N(Cc3cccc(F)c3F)C2=O)CC1 [Example 110] | 57% | 19.8 µM | – | – | – |
| CSc1ccc(-c2cc(Cl)ccc2NC(=O)C2=C(O)[C@H](C(C)(C)C)N(C)N(Cc3ccc(OCCN4CCOCC4)c(F)c3F)C2=O)cn1 [Example 269, (3S)-3-tert-Butyl-N-[4-chloro-2-(6-methylsulfanylpyridin-3-yl)phenyl]-1-[[2,3-difluoro-4-(2-morpholin-4-ylethoxy)phenyl]methyl]-4-hydroxy-2-methyl-6-oxo-3H-pyridazine-5-carboxamide] | 80% | – | 15% | – | – |
| Cc1c(C#N)ncnc1-c1cc(C(F)(F)F)ccc1NC(=O)C1=C(O)[C@H](C(C)(C)C)N(C)N(Cc2ccc(OCCN3CCOCC3)c(F)c2F)C1=O [Example 270, (3S)-3-tert-Butyl-N-[2-(6-cyano-5-methylpyrimidin-4-yl)-4-(trifluoromethyl)phenyl]-1-[[2,3-difluoro-4-(2-morpholin-4-ylethoxy)phenyl]methyl]-4-hydroxy-2-methyl-6-oxo-3H-pyridazine-5-carboxamide] | 75% | – | 20% | – | – |
| CN1N(Cc2ccc(OCCN3CCOCC3)c(F)c2F)C(=O)C(C(=O)Nc2ccc(C(F)(F)F)cc2-c2cc(C(F)(F)F)ncn2)=C(O)C12CCC2 [Example 317, 6-[[2,3-Difluoro-4-(2-morpholin-4-ylethoxy)phenyl]methyl]-9-hydroxy-5-methyl-7-oxo-N-[4-(trifluoromethyl)-2-[6-(trifluoromethyl)pyrimidin-4-yl]phenyl]-5,6-diazaspiro[3.5]non-8-ene-8-carboxamide] | 57% | – | 22% | – | – |
| CN1N(Cc2ccc(OCCN3CCOCC3)c(F)c2F)C(=O)C(C(=O)Nc2ccc(C(F)(F)F)cc2-c2cc(C(F)(F)F)ncn2)=C(O)C12CCCC2 [Example 318, 7-[[2,3-Difluoro-4-(2-morpholin-4-ylethoxy)phenyl]methyl]-10-hydroxy-6-methyl-8-oxo-N-[4-(trifluoromethyl)-2-[6-(trifluoromethyl)pyrimidin-4-yl]phenyl]-6,7-diazaspiro[4.5]dec-9-ene-9-carboxamide] | 43% | – | 32% | – | – |
| CN1N(Cc2ccc(OCCCCC(=O)O)c(F)c2F)C(=O)C(C(=O)Nc2ccc(C(F)(F)F)cc2-c2cc(C(F)(F)F)ncn2)=C(O)C12CCCC2 [Example 333, 5-[2,3-Difluoro-4-[[10-hydroxy-6-methyl-8-oxo-9-[[4-(trifluoromethyl)-2-[6-(trifluoromethyl)pyrimidin-4-yl]phenyl]carbamoyl]-6,7-diazaspiro[4.5]dec-9-en-7-yl]methyl]phenoxy]pentanoic acid] | 29% | – | 8% | – | – |
| COC[C@@H]1CCCN1CCOc1ccc(CN2C(=O)C(C(=O)Nc3ccc(C(F)(F)F)cc3-c3cc(C(F)(F)F)ncn3)=C(O)C3(CCC3)N2C)c(F)c1F [Example 345, 6-[[2,3-Difluoro-4-[2-[(2S)-2-(methoxymethyl)pyrrolidin-1-yl]ethoxy]phenyl]methyl]-9-hydroxy-5-methyl-7-oxo-N-[4-(trifluoromethyl)-2-[6-(trifluoromethyl)pyrimidin-4-yl]phenyl]-5,6-diazaspiro[3.5]non-8-ene-8-carboxamide] | 73% | – | 19% | – | – |
| CN(C)CC(C)(C)COc1ccc(CN2C(=O)C(C(=O)Nc3ccc(C(F)(F)F)cc3-c3cc(C(F)(F)F)ncn3)=C(O)C3(CCCC3)N2C)c(F)c1F [Example 414, 7-(4-(3-(Dimethylamino)-2,2-dimethylpropoxy)-2,3-difluorobenzyl)-10-hydroxy-6-methyl-8-oxo-N-(4-(trifluoromethyl)-2-(6-(trifluoromethyl)pyrimidin-4-yl)phenyl)-6,7-diazaspiro[4.5]dec-9-ene-9-carboxamide] | 27% | – | – | 37% | – |
| CN(C[C@H](O)[C@@H](O)[C@H](O)[C@H](O)CO)C(=O)CCCOc1ccc(CN2C(=O)C(C(=O)Nc3ccc(C(F)(F)F)cc3-c3cc(C(F)(F)F)ncn3)=C(O)C3(CCCC3)N2C)c(F)c1F [Example 418, 7-[[2,3-Difluoro-4-[4-[methyl-[(2S,3R,4R,5R)-2,3,4,5,6-pentahydroxyhexyl]amino]-4-oxobutoxy]phenyl]methyl]-10-hydroxy-6-methyl-8-oxo-N-[4-(trifluoromethyl)-2-[6-(trifluoromethyl)pyrimidin-4-yl]phenyl]-6,7-diazaspiro[4.5]dec-9-ene-9-carboxamide] | 29% | – | – | 38% | – |
| CN1N(Cc2ccc(OCCNCCS(=O)(=O)O)c(F)c2F)C(=O)C(C(=O)Nc2ccc(C(F)(F)F)cc2-c2cc(C(F)(F)F)ncn2)=C(O)C12CCCC2 [Example 436, 2-[2-[2,3-Difluoro-4-[[10-hydroxy-6-methyl-8-oxo-9-[[4-(trifluoromethyl)-2-[6-(trifluoromethyl)pyrimidin-4-yl]phenyl]carbamoyl]-6,7-diazaspiro[4.5]dec-9-en-7-vl]methyl]phenoxy]ethylamino]ethanesulfonic acid] | – | 14 µM | – | – | 12% |
